Experimental data from ChEMBL document CHEMBL3045943, “Novel N-aryl(alkaryl)-2-[(3-R-2-oxo-2H-[1,2,4]triazino[2,3-c]quinazoline-6-yl)thio]acetamides: synthesis, cytotoxicity, anticancer activity, COMPARE analysis and docking” (2013).

How the values were obtained:
Assay type in all cases: functional
[1] = system: Photobacterium leiognathi; assay: Growth inhibition of Photobacterium leiognathi Sh1 assessed as bio-luminescence at 0.25 mg/ml after 10 min by acute action test relative to control; set-up: scale not given: the % may be the effect or the level left
[2] = system: Photobacterium leiognathi; assay: Growth inhibition of Photobacterium leiognathi Sh1 assessed as bio-luminescence at 0.025 mg/ml after 16 to 18 hr by chronic action test relative to control; set-up: scale not given: the % may be the effect or the level left
[3] = system: Photobacterium leiognathi; assay: Growth inhibition of Photobacterium leiognathi Sh1 assessed as bio-luminescence at 0.025 mg/ml after 10 min by acute action test relative to control; set-up: scale not given: the % may be the effect or the level left
[4] = system: Photobacterium leiognathi; assay: Growth inhibition of Photobacterium leiognathi Sh1 assessed as bio-luminescence at 0.1 mg/ml after 10 min by acute action test relative to control; set-up: scale not given: the % may be the effect or the level left
[5] = system: Photobacterium leiognathi; assay: Growth inhibition of Photobacterium leiognathi Sh1 assessed as bio-luminescence at 0.25 mg/ml after 16 to 18 hr by chronic action test relative to control; set-up: scale not given: the % may be the effect or the level left
[6] = system: Photobacterium leiognathi; assay: Growth inhibition of Photobacterium leiognathi Sh1 assessed as bio-luminescence at 0.1 mg/ml after 16 to 18 hr by chronic action test relative to control; set-up: scale not given: the % may be the effect or the level left
[7] = system: NCI-H522; assay: Cytotoxicity against Homo sapiens (human) NCI-H522 cells assessed as cell growth at 10 uM after 48 hr by SRB assay relative to control; details: NCI-H522, 48 h, read-out: Activity
[8] = system: MDA-MB-435; assay: Cytotoxicity against Homo sapiens (human) MDA-MB-435 cells assessed as cell growth at 10 uM after 48 hr by SRB assay relative to control; details: MDA-MB-435, 48 h, read-out: Activity
[9] = system: HCT-116; assay: Cytotoxicity against Homo sapiens (human) HCT116 cells assessed as cell growth at 10 uM after 48 hr by SRB assay relative to control; details: HCT-116, 48 h, read-out: Activity
[10] = system: HOP-92; assay: Cytotoxicity against Homo sapiens (human) HOP92 cells assessed as cell growth at 10 uM after 48 hr by SRB assay relative to control; details: HOP-92, 48 h, read-out: Activity
[11] = system: LOX IMVI; assay: Cytotoxicity against Homo sapiens (human) LOXIMVI cells assessed as cell growth at 10 uM after 48 hr by SRB assay relative to control; details: read-out: Activity
[12] = system: OVCAR-3; assay: Cytotoxicity against Homo sapiens (human) OVCAR3 cells assessed as cell growth at 10 uM after 48 hr by SRB assay relative to control; details: OVCAR-3, 48 h, read-out: Activity
[13] = system: SF-539; assay: Cytotoxicity against Homo sapiens (human) SF539 cells assessed as cell growth at 10 uM after 48 hr by SRB assay relative to control; details: SF-539, 48 h, read-out: Activity
[14] = system: SR; assay: Cytotoxicity against Homo sapiens (human) SR cells assessed as cell growth at 10 uM after 48 hr by SRB assay relative to control; details: read-out: Activity
[15] = system: CCRF-CEM; assay: Cytotoxicity against Homo sapiens (human) CCRF-CEM cells assessed as cell growth at 10 uM after 48 hr by SRB assay relative to control; details: read-out: Activity
[16] = system: HT-29; assay: Cytotoxicity against Homo sapiens (human) HT-29 cells assessed as cell growth at 10 uM after 48 hr by SRB assay relative to control; details: HT-29, 48 h, read-out: Activity
[17] = system: KM12; assay: Cytotoxicity against Homo sapiens (human) KM12 cells assessed as cell growth at 10 uM after 48 hr by SRB assay relative to control; details: KM12, 48 h, read-out: Activity
[18] = system: MOLT-4; assay: Cytotoxicity against Homo sapiens (human) MOLT4 cells assessed as cell growth at 10 uM after 48 hr by SRB assay relative to control; details: MOLT-4, 48 h, read-out: Activity
[19] = Cytotoxicity against Homo sapiens (human) […] cells assessed as cell growth at 10 uM after 48 hr by SRB assay relative to control; details: read-out: Activity
[20] = system: SW-620; assay: Cytotoxicity against Homo sapiens (human) SW620 cells assessed as cell growth at 10 uM after 48 hr by SRB assay relative to control; details: SW-620, 48 h, read-out: Activity
[21] = system: HL-60(TB); assay: Cytotoxicity against Homo sapiens (human) HL-60(TB) cells assessed as cell growth at 10 uM after 48 hr by SRB assay relative to control; details: HL-60, 48 h, read-out: Activity
[22] = system: HCT-15; assay: Cytotoxicity against Homo sapiens (human) HCT15 cells assessed as cell growth at 10 uM after 48 hr by SRB assay relative to control; details: HCT-15, 48 h, read-out: Activity
[23] = system: K562; assay: Cytotoxicity against Homo sapiens (human) K562 cells assessed as cell growth at 10 uM after 48 hr by SRB assay relative to control; details: K562, 48 h, read-out: Activity
[24] = system: 786-0; assay: Cytotoxicity against Homo sapiens (human) 786-0 cells assessed as cell growth at 10 uM after 48 hr by SRB assay relative to control; details: 786-0, 48 h, read-out: Activity
[25] = system: SF-268; assay: Cytotoxicity against Homo sapiens (human) SF268 cells assessed as cell growth at 10 uM after 48 hr by SRB assay relative to control; details: SF-268, 48 h, read-out: Activity
[26] = system: A549; assay: Cytotoxicity against Homo sapiens (human) A549 cells assessed as cell growth at 10 uM after 48 hr by SRB assay relative to control; details: A549, 48 h, read-out: Activity
[27] = system: SNB-75; assay: Cytotoxicity against Homo sapiens (human) SNB75 cells after 48 hr by SRB assay; details: SNB-75, 48 h
[28] = system: SF-295; assay: Cytotoxicity against Homo sapiens (human) SF295 cells assessed as cell growth at 10 uM after 48 hr by SRB assay relative to control; details: SF-295, 48 h, read-out: Activity
[29] = system: HOP-62; assay: Cytotoxicity against Homo sapiens (human) HOP62 cells after 48 hr by SRB assay; details: HOP-62, 48 h
[30] = system: BT-549; assay: Cytotoxicity against Homo sapiens (human) BT549 cells after 48 hr by SRB assay; details: BT-549, 48 h
[31] = system: UO-31; assay: Cytotoxicity against Homo sapiens (human) UO31 cells after 48 hr by SRB assay; details: UO-31, 48 h
[32] = system: NCI-H460; assay: Cytotoxicity against Homo sapiens (human) NCI-H460 cells assessed as cell growth at 10 uM after 48 hr by SRB assay relative to control; details: NCI-H460, 48 h, read-out: Activity
[33] = system: A498; assay: Cytotoxicity against Homo sapiens (human) A498 cells after 48 hr by SRB assay; details: A498, 48 h
[34] = system: DU-145; assay: Cytotoxicity against Homo sapiens (human) DU145 cells assessed as cell growth at 10 uM after 48 hr by SRB assay relative to control; details: DU-145, 48 h, read-out: Activity
[35] = system: PC-3; assay: Cytotoxicity against Homo sapiens (human) PC3 cells assessed as cell growth at 10 uM after 48 hr by SRB assay relative to control; details: PC-3, 48 h, read-out: Activity
[36] = system: U-251; assay: Cytotoxicity against Homo sapiens (human) U251 cells assessed as cell growth at 10 uM after 48 hr by SRB assay relative to control; details: U-251, 48 h, read-out: Activity
[37] = system: SNB-75; assay: Cytotoxicity against Homo sapiens (human) SNB75 cells assessed as cell growth at 10 uM after 48 hr by SRB assay relative to control; details: SNB-75, 48 h, read-out: Activity

SMILES: Cc1nn2c(SCC(=O)NCc3ccccc3Cl)nc3ccccc3c2nc1=O
- Activity [1]: 142.9%
- Activity [2]: 148.9%
- Activity [3]: 91.7%
- Activity [4]: 110%
- Activity [5]: 125%
- Activity [6]: 180.9%
- growth at 10 µM [7]: 79.9%
- growth at 10 µM [8]: 79.8%

SMILES: O=C(CSc1nc2ccccc2c2nc(=O)c(-c3ccccc3)nn12)NCc1ccccc1Cl
- Activity [1]: 155%
- growth at 10 µM [9]: 7.01%
- growth at 10 µM [10]: 44.8%
- Activity [2]: 93%
- Activity [3]: 108.3%
- Activity [4]: 80%
- Activity [5]: 110%
- Activity [6]: 133.3%
- growth at 10 µM [11]: 27.9%
- growth at 10 µM [7]: 43.2%
- growth at 10 µM [12]: 47.9%
- growth at 10 µM [13]: 9.93%
- growth at 10 µM [14]: 47.4%

SMILES: Cc1ccc(-c2nn3c(SCC(=O)Nc4cccc(C(F)(F)F)c4)nc4ccccc4c3nc2=O)cc1
- Activity [1]: 83.3%
- growth at 10 µM [10]: 71%
- Activity [2]: 118.2%
- Activity [3]: 61.1%
- Activity [4]: 78.8%
- Activity [5]: 200%
- Activity [6]: 81.5%
- growth at 10 µM [13]: 80.8%
- growth at 10 µM [14]: 66.5%

SMILES: COc1ccc(-c2nn3c(SCC(=O)Nc4ccccc4F)nc4ccccc4c3nc2=O)cc1
- growth at 10 µM [15]: 67.5%
- Activity [1]: 40%
- growth at 10 µM [9]: 56.7%
- growth at 10 µM [16]: 67.8%
- growth at 10 µM [17]: 51.3%
- growth at 10 µM [18]: 52.7%
- Activity [2]: 100%
- growth at 10 µM [19]: 67.6%
- Activity [3]: 90%
- Activity [4]: 84%
- growth at 10 µM [20]: 65.6%
- Activity [5]: 100%
- Activity [6]: 96.67%
- growth at 10 µM [21]: 67.9%
- growth at 10 µM [14]: 48.2%
- growth at 10 µM [22]: 92.2%
- growth at 10 µM [23]: 60.2%

SMILES: Cc1ccc(-c2nn3c(SCC(=O)Nc4ccccc4F)nc4ccccc4c3nc2=O)cc1
- growth at 10 µM [15]: 76.8%
- Activity [1]: 47.83%
- growth at 10 µM [18]: 82.3%
- Activity [2]: 112.5%
- growth at 10 µM [19]: 94.4%
- Activity [3]: 89.86%
- Activity [4]: 86.96%
- Activity [5]: 100%
- Activity [6]: 87.5%
- growth at 10 µM [21]: 84.4%
- growth at 10 µM [14]: 73.7%
- growth at 10 µM [23]: 77.5%

SMILES: O=C(CSc1nc2ccccc2c2nc(=O)c(-c3ccccc3)nn12)NCc1ccccc1
- growth at 10 µM [24]: -7.56%
- growth at 10 µM [15]: 37.9%
- Activity [1]: 100%
- growth at 10 µM [9]: 48.6%
- growth at 10 µM [10]: 24.6%
- growth at 10 µM [25]: 53.1%
- growth at 10 µM [17]: 12%
- growth at 10 µM [18]: 43%
- Activity [2]: 84.9%
- growth at 10 µM [26]: 12.8%
- growth at 10 µM [19]: 44.5%
- GI50 [27]: 2.19 µM
- LC50 [27]: 43.7 µM
- TGI ([27]; read-out: pTGI (converted)): 13.5 µM
- Activity [3]: 125%
- Activity [4]: 112.5%
- growth at 10 µM [20]: 19.4%
- growth at 10 µM [28]: 55.7%
- GI50 [29]: 2.75 µM
- LC50 [29]: 30.2 µM
- TGI ([29]; read-out: pTGI (converted)): 7.08 µM
- Activity [5]: 78.2%
- Activity [6]: 113.6%
- growth at 10 µM [11]: 29.5%
- GI50 [30]: 3.02 µM
- LC50 [30]: > 100 µM
- TGI ([30]; read-out: pTGI (converted)): 7.76 µM
- GI50 [31]: 2.57 µM
- LC50 [31]: > 100 µM
- TGI ([31]; read-out: pTGI): > 100 µM
- growth at 10 µM [21]: 51.6%
- growth at 10 µM [12]: 13.7%
- growth at 10 µM [14]: 41.9%
- growth at 10 µM [32]: 1.57%
- GI50 [33]: 0.0269 µM
- LC50 [33]: > 100 µM
- TGI ([33]; read-out: pTGI (converted)): 37.2 µM
- growth at 10 µM [34]: 21.8%
- growth at 10 µM [8]: 21.7%
- growth at 10 µM [23]: 29.7%
- growth at 10 µM [35]: 18.1%
- growth at 10 µM [36]: 30.1%

SMILES: Cc1ccc(-c2nn3c(SCC(=O)Nc4ccccc4C)nc4ccccc4c3nc2=O)cc1
- growth at 10 µM [15]: -49.6%
- Activity [1]: 193.5%
- Activity [2]: 100%
- Activity [3]: 119.7%
- Activity [4]: 109.7%
- Activity [5]: 93.3%
- Activity [6]: 66.7%
- growth at 10 µM [37]: 46.7%
- growth at 10 µM [36]: 63.5%

SMILES: COc1ccc(-c2nn3c(SCC(=O)Nc4ccccc4C(F)(F)F)nc4ccccc4c3nc2=O)cc1
- Activity [1]: 113.4%
- Activity [2]: 185.2%
- growth at 10 µM [19]: 85.1%
- Activity [3]: 97.8%
- Activity [4]: 106.5%
- Activity [5]: 102.9%
- Activity [6]: 200%
